Data reported in ChEMBL document CHEMBL1201862, “PubChem BioAssay data set” (2004).
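Dose response: 5 concentrations. Exposure: 48 h. Format: 96-well plates. Endpoint: linear interpolation; highest concentration if not reached. GI50 marks 50% less growth.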 The source made the active and inactive calls. Cut-off read from the data, not from the text of the source: active = GI50 up to about 1.1 µM and inactive = higher.

Experiments:
Assay in all cases: NCI anticancer screen, dose series, 48 h
M14 = test system: M14
OVCAR-5 = test system: OVCAR-5
K562 = test system: K562
NCI-H23 = test system: NCI-H23
Malme-3M = test system: Malme-3M
OVCAR-8 = test system: OVCAR-8
RPMI-8226 = test system: RPMI-8226
UO-31 = test system: UO-31
RXF 393 = test system: RXF 393
OVCAR-3 = test system: OVCAR-3
SN12C = test system: SN12C
SW-620 = test system: SW-620
UACC-257 = test system: UACC-257
CCRF-CEM = test system: CCRF-CEM
EKVX = test system: EKVX

SMILES | GI50 (M14) | GI50 (OVCAR-5) | GI50 (K562) | GI50 (NCI-H23) | GI50 (Malme-3M) | GI50 (OVCAR-8) | GI50 (RPMI-8226) | GI50 (UO-31) | GI50 (RXF 393) | GI50 (OVCAR-3) | GI50 (SN12C) | GI50 (SW-620) | GI50 (UACC-257) | GI50 (CCRF-CEM) | GI50 (EKVX)
CCCCSC1CCSc2c1ccc1ccccc21 (stereo not given) | 74.1 µM (inactive) | 42 µM (inactive) | 44.9 µM (inactive) | > 100 µM (inactive) | 10.2 µM (inactive) | > 100 µM (inactive) | > 100 µM (inactive) | > 100 µM (inactive) | 52.8 µM (inactive) |  |  |  |  |  | 
c1ccc2c(C3NCCc4nc[nH]c43)cccc2c1 (stereo not given) | > 100 µM (inactive) | > 100 µM (inactive) | > 100 µM (inactive) | > 100 µM (inactive) |  | > 100 µM (inactive) | > 100 µM (inactive) | > 100 µM (inactive) | > 100 µM (inactive) | > 100 µM (inactive) | > 100 µM (inactive) | > 100 µM (inactive) | > 100 µM (inactive) | > 100 µM (inactive) | 
CCOC(=O)C1S/C(=N\c2cccc(Cl)c2C)N=C1C (stereo not given) |  | 18.7 µM (inactive) | 34.1 µM (inactive) | > 10 µM (inactive) | 19.6 µM (inactive) | 21.3 µM (inactive) | 22 µM (inactive) | 37.4 µM (inactive) | 21.7 µM (inactive) | 22.9 µM (inactive) | 18.8 µM (inactive) | 28.4 µM (inactive) | > 10 µM (inactive) |  | > 10 µM (inactive)
COc1ccc(/C(=N\NC(=S)NN)C(c2ccc(OC)cc2)C2C(=O)Oc3ccccc32)cc1 (stereo not given) | > 10 µM (inactive) | > 10 µM (inactive) | > 10 µM (inactive) | > 10 µM (inactive) | > 10 µM (inactive) | > 10 µM (inactive) | > 10 µM (inactive) | > 10 µM (inactive) | > 10 µM (inactive) | > 10 µM (inactive) | > 10 µM (inactive) | > 10 µM (inactive) | > 10 µM (inactive) | 64.9 µM (inactive) | > 10 µM (inactive)
FC(F)(F)c1nc(-c2ccccc2)oc1Sc1nnc(Sc2oc(-c3ccccc3)nc2C(F)(F)F)s1 | 14.2 µM (inactive) | > 100 µM (inactive) | 24 µM (inactive) | 24.2 µM (inactive) | 18.1 µM (inactive) | 22.7 µM (inactive) | 30.5 µM (inactive) | > 100 µM (inactive) | 21.1 µM (inactive) | > 43.4 µM (inactive) | 39.4 µM (inactive) | > 60.3 µM (inactive) | > 69.7 µM (inactive) | 8.97 µM (inactive) | > 47.2 µM (inactive)
CC(=O)OCCOCNC(=S)N/N=C(\C)c1cnccn1 | 17.1 µM (inactive) | 7.53 µM (inactive) | 30.5 µM (inactive) | 58.2 µM (inactive) | 30.2 µM (inactive) | 30.1 µM (inactive) | 42.4 µM (inactive) | 18.9 µM (inactive) | 23.2 µM (inactive) | 23.7 µM (inactive) | 29.7 µM (inactive) | 23.9 µM (inactive) | 43.1 µM (inactive) | 13 µM (inactive) | 22.3 µM (inactive)
Cc1nsc2cc(Cl)n(C)c(=O)c12 | > 100 µM (inactive) | > 100 µM (inactive) | > 100 µM (inactive) | > 100 µM (inactive) | > 100 µM (inactive) | > 100 µM (inactive) | > 100 µM (inactive) | > 100 µM (inactive) | > 100 µM (inactive) | > 100 µM (inactive) | > 100 µM (inactive) | > 100 µM (inactive) | > 100 µM (inactive) | > 100 µM (inactive) | 50.4 µM (inactive)
CC12CCC(=O)N1c1cc([N+](=O)[O-])ccc1N2 (stereo not given) | > 100 µM (inactive) |  | > 100 µM (inactive) | > 100 µM (inactive) | > 100 µM (inactive) | > 100 µM (inactive) | > 100 µM (inactive) | > 100 µM (inactive) | > 100 µM (inactive) | > 100 µM (inactive) | > 100 µM (inactive) | > 100 µM (inactive) | > 100 µM (inactive) | > 100 µM (inactive) | > 100 µM (inactive)
NNC(=O)CNC(=O)c1ccc(Cl)cc1Cl | > 100 µM (inactive) | > 100 µM (inactive) | > 100 µM (inactive) | > 100 µM (inactive) | > 100 µM (inactive) | > 100 µM (inactive) | > 100 µM (inactive) | > 100 µM (inactive) |  | > 100 µM (inactive) | > 100 µM (inactive) | 15.8 µM (inactive) | > 100 µM (inactive) | > 100 µM (inactive) | > 100 µM (inactive)
CC(C)CCC[C@@H](C)C1CCC2[C@@H]3CC=C4C[C@@H](OC(=O)CCC(=O)NCC[N+](C)(C)CCCS(=O)(=O)[O-])CC[C@]4(C)C3CC[C@@]21C (stereo not given in full) | 19.7 µM (inactive) |  | 18.9 µM (inactive) |  | 22.5 µM (inactive) | 18.6 µM (inactive) | 20 µM (inactive) | 41 µM (inactive) | 11.3 µM (inactive) | 17.9 µM (inactive) | 19.5 µM (inactive) | 17.7 µM (inactive) | 23.2 µM (inactive) | 23.5 µM (inactive) | 29.2 µM (inactive)
COC12CCC(C(C(=O)c3ccccc3)=C1C(=O)c1ccccc1)C(O)C2 (stereo not given) | > 100 µM (inactive) |  | > 100 µM (inactive) | > 100 µM (inactive) | > 100 µM (inactive) | > 100 µM (inactive) | > 100 µM (inactive) | > 100 µM (inactive) |  | > 100 µM (inactive) | > 100 µM (inactive) | > 100 µM (inactive) | > 100 µM (inactive) | > 100 µM (inactive) | > 100 µM (inactive)
CC(C)C(/N=C1\CC2CCC1(C(=O)Nc1ccccc1O)C2(C)C)c1ccccc1 (stereo not given) | > 10 µM (inactive) | > 10 µM (inactive) | > 10 µM (inactive) | 7.67 µM (inactive) | > 10 µM (inactive) | > 10 µM (inactive) | 5.11 µM (inactive) | > 10 µM (inactive) |  | > 10 µM (inactive) | > 10 µM (inactive) | 4.8 µM (inactive) | 5.89 µM (inactive) | > 10 µM (inactive) | 7.43 µM (inactive)
CCCCN(CCCC)C(=O)C(=O)CC(=O)c1ccc(Br)cc1 | > 100 µM (inactive) | > 100 µM (inactive) | > 100 µM (inactive) | > 100 µM (inactive) | > 100 µM (inactive) | > 100 µM (inactive) | > 100 µM (inactive) | > 100 µM (inactive) |  | > 100 µM (inactive) | > 100 µM (inactive) | > 100 µM (inactive) | > 100 µM (inactive) | > 100 µM (inactive) | > 100 µM (inactive)
O=c1cc(-c2ccccc2)oc2cc(OCC(O)COc3ccc4c(=O)cc(-c5ccccc5)oc4c3)ccc12 | > 100 µM (inactive) | > 100 µM (inactive) | 42.8 µM (inactive) | 43.9 µM (inactive) | > 100 µM (inactive) | 19.1 µM (inactive) | > 100 µM (inactive) | > 100 µM (inactive) |  | 32.5 µM (inactive) |  | 61.2 µM (inactive) | > 100 µM (inactive) | 33 µM (inactive) | > 100 µM (inactive)
CCOc1ccc(NC(=O)CC2C(=O)Nc3ccccc3S2(=O)=O)cc1 (stereo not given) |  | > 100 µM (inactive) | > 100 µM (inactive) | > 100 µM (inactive) | > 100 µM (inactive) | 39.4 µM (inactive) | > 100 µM (inactive) | > 100 µM (inactive) | 64.1 µM (inactive) | 77.1 µM (inactive) | 53.1 µM (inactive) | > 100 µM (inactive) | > 100 µM (inactive) |  | > 100 µM (inactive)
Cc1c(C(=O)CSc2nc3ccccc3c(=O)n2-c2ccccc2)c(=O)n(-c2ccccc2)n1C | 94.2 µM (inactive) | > 100 µM (inactive) |  | 62.4 µM (inactive) | 60.5 µM (inactive) |  | > 100 µM (inactive) | 34.8 µM (inactive) |  | 27.6 µM (inactive) | 97.7 µM (inactive) | > 100 µM (inactive) | 47.3 µM (inactive) | > 100 µM (inactive) | 
COC1=CC(=O)C2C(C1=O)[C@@H]1c3ccccc3C[C@H]21 (stereo not given in full) | > 100 µM (inactive) | > 100 µM (inactive) | > 100 µM (inactive) | > 100 µM (inactive) | > 100 µM (inactive) | 85.3 µM (inactive) | > 100 µM (inactive) | > 100 µM (inactive) | > 100 µM (inactive) | > 100 µM (inactive) |  | > 100 µM (inactive) | > 100 µM (inactive) | > 100 µM (inactive) | > 100 µM (inactive)
C[N+](C)(C)CCC(=O)CC[N+](C)(C)C | 18.3 µM (inactive) |  | 6.68 µM (inactive) | 24.5 µM (inactive) | 19.7 µM (inactive) | 19.8 µM (inactive) | 4.68 µM (inactive) | 92 µM (inactive) | 21.3 µM (inactive) | 18.6 µM (inactive) | > 10 µM (inactive) | 16.1 µM (inactive) | 17.6 µM (inactive) | 2.49 µM (inactive) | 55.3 µM (inactive)
C=CCCCCn1c2ccccc2c2c(C)c3c[n+](C)ccc3c(C)c21 | 0.979 µM (active) | 1.07 µM (active) | 0.281 µM (active) | 0.382 µM (active) | 0.275 µM (active) | 0.197 µM (active) | 0.212 µM (active) | 5.28 µM (inactive) | 0.684 µM (active) | 0.288 µM (active) | 0.234 µM (active) | 0.296 µM (active) | 0.391 µM (active) | 0.335 µM (active) | 
Nc1ncnc(NC2C=C(CO)C(O)C2O)c1[N+](=O)[O-] (stereo not given) | > 100 µM (inactive) | > 100 µM (inactive) | > 100 µM (inactive) | > 100 µM (inactive) |  | > 100 µM (inactive) | > 100 µM (inactive) | > 100 µM (inactive) | > 100 µM (inactive) | > 100 µM (inactive) | > 100 µM (inactive) | 28.1 µM (inactive) | > 100 µM (inactive) | > 100 µM (inactive) | > 100 µM (inactive)
